In patent publication US8178579B2, “Dioxanes and uses thereof” (President and Fellows of Harvard College, priority 2001, dated 2012):
Entries after “also recorded” stand apart in the source; their conditions may differ. Read-outs that look alike come from different tables or passages of the source.

Tests used:
A549 cells = assay: cell cycle (BrdU labeling, FACS) and cell morphology; format: cell-based, human; details: for effect on cell cycle / DNA synthesis: FACS: 4 h, TSA 300 nM, tubacin 2 μM
Method: Bromodeoxyuridine labeling and fluorescence-activated cell sorting (FACS) were performed as described (K. M. Koeller et al., Chemistry & Biology, 10 (5) (2003) pp. 397-410). […] Samples were rinsed in PBS, trypsinized, and fixed for two hours in 70% ethanol/30% PBS (4° C.). Cells were then washed once in PBS and stored overnight in PBS (4° C.). To measure acetylated tubulin levels, samples were blocked for 45 minutes in ADB, aspirated, and incubated in ADB with anti-acetylated tubulin (1:500) overnight (4° C.). Samples were washed twice in ADB and incubated in ADB with FITC-conjugated anti-mouse IgG (goat; 1:200) for one hour (room temperature). After washing twice in TBS, cells were resuspended in 100 μL of ribonuclease A (100 μg/mL) and incubated for five minutes (37° C.). To measure the DNA content, 400 μL of propidium iodide (50 μg/mL) was added to the samples and incubated for one hour (room temperature). Samples were analyzed using a FACScanII flow cytometer (Becton-Dickinson), at the Dana Farber Cancer Institute, exciting at 488 nm and measuring the acetylated tubulin-linked FITC fluorescence through a 514 nm bandpass filter and the PI fluorescence through a 600 nm wave-length filter. Cell cycle distributions were calculated from 10,000 cells and modeled using ModFit LT (V2.0) software.

HDAC6 = molecular target: T1, HDAC6 (Homo sapiens, UniProt Q9UBN7); assay: HDAC assay, [3H]acetate-incorporated histones with immunoprecipitated FLAG-tagged HDAC6 (HDAC6F); format: biochemical; design: made in house; host or cells: TAg Jurkat cells, transient transfection, anti-FLAG M2 immunoprecipitation; details: [3H]-labeled histones, n=3
T1 sequence (Q9UBN7 1-1215): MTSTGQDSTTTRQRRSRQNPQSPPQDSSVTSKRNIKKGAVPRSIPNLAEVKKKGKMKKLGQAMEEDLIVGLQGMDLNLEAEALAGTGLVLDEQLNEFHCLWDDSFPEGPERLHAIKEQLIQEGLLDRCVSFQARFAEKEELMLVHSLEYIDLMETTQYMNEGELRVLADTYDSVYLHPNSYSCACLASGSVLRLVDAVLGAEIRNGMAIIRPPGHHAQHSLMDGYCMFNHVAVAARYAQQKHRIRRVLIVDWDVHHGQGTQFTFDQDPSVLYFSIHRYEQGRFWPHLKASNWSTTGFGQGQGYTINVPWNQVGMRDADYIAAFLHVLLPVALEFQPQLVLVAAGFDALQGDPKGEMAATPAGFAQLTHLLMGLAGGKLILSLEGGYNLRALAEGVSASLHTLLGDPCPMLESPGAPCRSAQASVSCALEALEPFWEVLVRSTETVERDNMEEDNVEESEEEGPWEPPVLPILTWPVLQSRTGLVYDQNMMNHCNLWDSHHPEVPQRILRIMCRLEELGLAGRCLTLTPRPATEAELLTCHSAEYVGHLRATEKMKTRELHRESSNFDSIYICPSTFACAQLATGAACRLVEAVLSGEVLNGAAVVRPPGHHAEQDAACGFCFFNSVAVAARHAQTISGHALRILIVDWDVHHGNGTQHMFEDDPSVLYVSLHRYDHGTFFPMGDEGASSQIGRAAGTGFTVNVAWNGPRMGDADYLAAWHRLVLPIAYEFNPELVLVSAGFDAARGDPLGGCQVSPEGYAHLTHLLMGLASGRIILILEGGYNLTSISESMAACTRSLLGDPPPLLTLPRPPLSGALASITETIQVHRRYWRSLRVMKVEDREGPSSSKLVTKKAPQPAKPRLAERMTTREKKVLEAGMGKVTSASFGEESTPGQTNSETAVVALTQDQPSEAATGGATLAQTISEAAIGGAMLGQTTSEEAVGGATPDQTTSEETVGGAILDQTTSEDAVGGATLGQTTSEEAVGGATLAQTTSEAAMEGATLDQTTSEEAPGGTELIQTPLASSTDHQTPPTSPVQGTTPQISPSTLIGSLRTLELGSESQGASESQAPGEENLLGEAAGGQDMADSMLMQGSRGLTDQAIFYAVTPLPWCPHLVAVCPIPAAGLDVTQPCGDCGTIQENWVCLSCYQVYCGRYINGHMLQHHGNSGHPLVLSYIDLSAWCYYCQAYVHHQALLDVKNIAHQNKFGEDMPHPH
Method: Cell culture and Transfections. TAg-Jurkat cells were transfected by electroporation with 5 μg of FLAG-epitope-tagged pBJ5 constructs (as described in ref. 5c) for expression of recombinant proteins. Cells were harvested 48 h posttransfection.
HDAC assays. […] Compounds were added in DMSO such that final assay concentrations were 1% DMSO. IC50s were calculated using Prism 3.0 software. Curve fitting was done without constraints using the program's Sigmoidal-Dose Response parameters. All data points were acquired in duplicate and IC50s are calculated from the composite results of at least two separate experiments.
(§1) Tubulin and MAPs were isolated from bovine brain as described [See http://mitchison.med.harvard.edu/protocols/tubprep.html]. Whole brain and fractions from phosphocellulose chromatography were blotted for HDAC6 and acetylated α-tubulin. Cultured hippocampal neurons from dissociated 1-day old rat brains were transfected with an enhanced green fluorescent protein (EGFP)-actin construct at 4-5 days using the calcium phosphate method [E. N. Star, D. J. Kwiatkowski and V. N. Murthy, Nat. Neurosci. […] K. Miranti and M. E. Greenberg, J. Neurosci. […] Transfected cultures were allowed to grow for at least 48 h before the addition of experimental compounds.
(§2) [^3H]Acetate-incorporated histones were isolated from butyrate-treated HeLa cells as described [J. Taunton, C. […] Immunoprecipitates were incubated with acetylated histones and HDAC activity determined by scintillation counting as described [J. Taunton, C. […] TDAC assays were performed with immunoprecipitates using MAP-stabilized microtubules polymerized from MAP-rich tubulin fraction as described [C. […] Reactions were incubated (2 h) at 37° C., then incubated on ice (15 min).

HDAC6F = molecular target: T2, HDAC6F (Homo sapiens, UniProt Q9UBN7); assay: in vitro tubulin deacetylase (TDAC) assay, immunoprecipitated wild-type HDAC6F, MAP-stabilized tubulin; format: biochemical; details: TSA 300 nM or 1 μM; tubacin, niltubacin, trapoxin B 1 μM
T2 construct: made in house; host or cells: TAg Jurkat cells, transient transfection, anti-FLAG M2 immunoprecipitation
T2 sequence (Q9UBN7 1-1215): T1 sequence (Q9UBN7 1-1215)
Description: as §1, §2

| SMILES | effect on cell cycle / DNA synthesis (A549 cells) | inhibition of HDAC activity of wild-type HDAC6F (HDAC6) | inhibition of TDAC activity of wild-type HDAC6F (HDAC6F) | effect on cell morphology (A549 cells) | effect on cell cycle / DNA synthesis (A549 cells; listed as JCWII114) | effect on cell morphology (A549 cells; listed as JCWII114) |
| --- | --- | --- | --- | --- | --- | --- |
| CC(/C=C/C(=O)NO)=C\[C@@H](C)C(=O)c1ccc(N(C)C)cc1 [TSA, trichostatin A, reference compound] | marked loss of a BrdU-positive S-phase population | only partial inhibited by TSA or tubacin | inhibited by TSA (300 nM) or tubacin (1 μM); also recorded: inhibited α-tubulin deacetylation |  |  |  |
| O=C(CCCCCCC(=O)Nc1ccc([C@@H]2OC(c3ccc(CO)cc3)C[C@H](CSc3nc(-c4ccccc4)c(-c4ccccc4)o3)O2)cc1)NO (stereo partly drawn) [tubacin] | No effect of tubacin on DNA synthesis or cell cycle distribution; also recorded: had no such effects | only partial inhibited by TSA or tubacin | inhibited by TSA (300 nM) or tubacin (1 μM); also recorded: inhibited α-tubulin deacetylation | had no overall effect on the morphology of A549 cells | no apparent affect on the cell cycle or on cell morphology | no apparent affect on the cell cycle or on cell morphology |
